Columns and labels:
junB = assay: Acute denervation: junB mRNA in EDL and soleus (qPCR); format: in vivo, rat
MAFbx = assay: Chronic denervation: MAFbx mRNA in gastrocnemius (qPCR); format: in vivo, rat
Protocol: (§1) Male Wistar rats weighing 200-250 gm (Taconic Farms, Germantown, N.Y.) were provided food and water ad libitum and were housed in a temperature and humidity controlled environment providing a 12:12 hour day-night cycle. For surgical procedures, animals were anesthetized with ketamine/xylazine. The left sciatic nerve was exposed by blunt dissection, and a 1 to 2 mm piece of this nerve was excised just below the level of the femoral head. A sham surgery was performed on the right hind limb in which the sciatic nerve was exposed but was not transected. Twenty eight days later, animals were anesthetized, and Alzet pumps were implanted subcutaneously on the back. […] Testosterone levels after replacement were approximately 15 nM, a high-normal range for rats of this age. Animals were sacrificed 3, 7 or 28 days after implantation of the miniosmotic pumps by inhalation of carbon dioxide. Gastrocnemius muscles were excised and weighed, then flash frozen on dry ice and stored at −80° C.
(§2) Total RNA was extracted from skeletal muscle (20 mg) by homogenization in guanidine thiocyanate using a Polytron followed by extraction of total RNA with phenol-chloroform as described by (Chomczynski and Sacchi, Anal Biochem 162: 156-159, 1987). Total RNA was further enriched using RNAeasy minicolumns (Qiagen, Valencia, Calif.). This procedure included digestion of contaminating DNA on the column with RNAse-free DNAse (Qiagen). Total RNA was eluted and quantified by absorbance at 260 nm. One μg of total RNA was used to prepare a cDNA library by reverse transcription (High Capacity cDNA Archive Kit, Applied Biosystems). Libraries were diluted 25-fold with water. Real time PCR was performed Taqman 2×PCR buffer (Applied Biosystems) using an Applied Biosystems 7500 thermocycler. Levels of gene expression in the denervated muscle were expressed as fold induction relative to muscle from the sham-denervated leg of animals administered vehicle. […] Fold-induction was determined using the 2^−ΔΔCt method, using expression of 18S RNA as the normalization control. […]

MuRF1 = assay: Chronic denervation: MuRF1 mRNA in gastrocnemius (qPCR); format: in vivo, rat; conditions: for reduction of MuRF1 expression: denervated muscle
Protocol: as §1, §2

IGFBP-4 = assay: Chronic denervation: IGFBP-4 mRNA in gastrocnemius (qPCR); format: in vivo, rat
Protocol: as §1, with “Animals were sacrificed 3, 7 or 28 days after implantation of the miniosmotic pumps by inhalation of carbon dioxide. Gastrocnemius muscles were excised and weighed, then flash frozen on dry ice and stored at −80° C.” left out
Total RNA was extracted from skeletal muscle (20 mg) by homogenization in guanidine thiocyanate using a Polytron followed by extraction of total RNA with phenol-chloroform as described by (Chomczynski and Sacchi, Anal Biochem 162: 156-159, 1987). […] Total RNA was eluted and quantified by absorbance at 260 nm. […] Levels of gene expression in the denervated muscle were expressed as fold induction relative to muscle from the sham-denervated leg of animals administered vehicle. […] Fold-induction was determined using the 2^−ΔΔCt method, using expression of 18S RNA as the normalization control. […]

myogenin = assay: Chronic denervation: myogenin mRNA in gastrocnemius (qPCR); format: in vivo, rat
Protocol: as §1
Total RNA was extracted from skeletal muscle (20 mg) by homogenization in guanidine thiocyanate using a Polytron followed by extraction of total RNA with phenol-chloroform as described by (Chomczynski and Sacchi, Anal Biochem 162: 156-159, 1987). Total RNA was further enriched using RNAeasy minicolumns (Qiagen, Valencia, Calif.). This procedure included digestion of contaminating DNA on the column with RNAse-free DNAse (Qiagen). Total RNA was eluted and quantified by absorbance at 260 nm. One μg of total RNA was used to prepare a cDNA library by reverse transcription (High Capacity cDNA Archive Kit, Applied Biosystems). Libraries were diluted 25-fold with water. Real time PCR was performed Taqman 2×PCR buffer (Applied Biosystems) using an Applied Biosystems 7500 thermocycler. Levels of gene expression in the denervated muscle were expressed as fold induction relative to muscle from the sham-denervated leg of animals administered vehicle. […] Fold-induction was determined using the 2^−ΔΔCt method, using expression of 18S RNA as the normalization control. Primers and probes used for 18S RNA, MuRF1 and myostatin were obtained through the assays by Design service of Applied Biosystems and had the sequences are shown in Table 3; probes were 5′ labeled with FAM and 3′ modified with a non-fluorescent quencher. All other primer-probe combinations used were those contained in ABI Assay on Demand kits.

GADD45 = assay: Chronic denervation: GADD45 mRNA in gastrocnemius (qPCR); format: in vivo, rat
Protocol: as §1, §2

human IGF-1 promoter = assay: Human IGF-1 promoter luciferase reporter assay in HepG2 cells; format: cell-based
Description: pREP4.hAR, expressing full length human AR, and pCMV.Sport.β-Gal, expressing β-galactosidase under a CMV promoter, were as described (Zhao et al., Steroids 69: 357-366, 2004). pcDNA5.rGR, expressing rat glucocorticoid receptor, was provided by Dr. Diane Robins (University of Michigan). The rARC562G vector expressing rat AR with a C562G mutation in the DBD, which results in a loss of DNA binding. The IGF-1 reporter genes pOLuc.1630, pOLuc1300, pOLuc926, pOLuc 320 were provided by Dr. Peter Rotwein (Oregon Health & Science University). These reporters expressed firefly luciferase under the control of 320 to 1630 bases upstream of the transcriptional start site of the human IGF-1 promoter as described in (Kim et al., Mol Endocrinol 5: 1964-1972, 1991). pEGX 4T-1 hAR2, expressing GST fused to the N-terminus of AR DNA-binding domain, was provided by Robert J. Matusik, Ph.D. (Vanderbuilt University Medical Center). pRL-CMV expressing Renilla luciferase was from Promega (Madison, Wis.).
HepG2 cells (ATCC, Bethesda, Md.) were maintained in Dulbecco's modified Eagle's medium (DMEM), supplemented with 10% fetal bovine serum (FBS) and antibiotics (penicillin 100 U/ml, streptomycin 100 μg/ml). Cells were seeded at 5×10^4 cells/per well into wells of 24-well plates containing DMEM supplemented with 10% charcoal-dextran stripped FBS (CDS-FBS). The next day, cells were transfected with a total of 300 ng DNA per well using Lipofectamine Plus (Invitrogen) with plasmids as indicated in the figure legends. Three hours after transfection, cells were covered with DMEM supplemented with 10% CDS-FBS and either hormone dissolved in ethanol, or ethanol, as indicated in the figures. […] After overnight incubation, activities of firefly and Renilla luciferase were determined using the Dual Luciferase Assay system (Promega).
Reporter plasmids expressing firefly luciferase under the control of upstream regions of the IGF-1 promoter were constructed by PCR amplification of segments of interest using primers shown in Table 2, using pOLuc-1630 as a template. The location of each amplified fragment is relative to the transcriptional start site. PCR amplification was conduced using a high fidelity Taq polymerase (Pfx, Invitrogen). PCR products were cloned into pCR2.1-TOPO TA (Invitrogen) and the sequences of the inserts were verified. Inserts were excised with Kpn I and Xho I, and were subcloned into pGL3-Promoter (Promega) at these same sites. PGL3-Promoter expresses firefly luciferase under the control of a minimal promoter.

[1] = HepG2 + AR, increasing doses of testosterone
[2] = HepG2 + AR, testosterone (FIG. 17)

C[C@]12CC[C@H]3[C@@H](CCC4=CC(=O)CC[C@@H]43)[C@@H]1CC[C@@H]2O [nandrolone]
junB expression (junB; denervated EDL): significantly reduced | junB expression (junB; denervated soleus): tended to reduce | increase in junB expression (junB; soleus and EDL from sham-denervated limbs, tendency): approximately 2 fold | MAFbx expression (MAFbx; denervated muscle, 7-days infusion (35 days after denervation)): tended to be reduced | reduction of MAFbx expression (MAFbx; denervated muscle, 28 days administration): 35% | MAFbx expression (MAFbx; sham-denervated muscle): did not alter | reduction of MuRF1 expression (MuRF1; 7-days administration): 31% | reduction of MuRF1 expression (MuRF1; 28-days administration): 37% | MuRF1 expression (MuRF1; muscle of sham-denervated hindlimbs): no effect | IGFBP-4 expression (IGFBP-4; denervated muscle, any time tested): did not significantly alter | IGFBP-4 expression (IGFBP-4; sham-denervated muscle): did not appreciably alter | myogenin expression (myogenin; denervated muscle, 3 or 7-days administration): No effects | fall in myogenin expression (myogenin; denervated muscle, 28-days infusion): 32% | elevation of myogenin expression (myogenin; muscle not stated (contrasted with denervated muscle), day 28 of the infusion): approximately 2 fold | myogenin expression (myogenin; muscle not stated, first 7-days after starting administration): did not alter | GADD45 expression (GADD45; denervated muscle, after 3 and 7-days, not significant): tended to reduce | effect on GADD45 expression (GADD45; denervated muscle, after 28-days infusion): lost | GADD45 expression (GADD45; sham-denervated muscle): no appreciable effect

C[C@]12CC[C@H]3[C@@H](CCC4=CC(=O)CC[C@@]43C)[C@@H]1CC[C@@H]2O [testosterone]
activation of the upstream promoter of the human IGF-1 gene (human IGF-1 promoter; Hep G2 cells, FIG. 18): activated | dose at which induction of luciferase expression begins, pGL3-230 (ARE1) (human IGF-1 promoter; HepG2 + AR): 0.25 nM | induction of pGL3-32 at the lowest concentration tested (human IGF-1 promoter; HepG2 + AR, 0.05 nM testosterone): ~10 fold | maximal induction and sensitivity, pGL3-13A (ARE2) (human IGF-1 promoter; [1]): intermediate | plateau of induction, pGL3-32 (both AREs) (human IGF-1 promoter; [1]): 25 fold | plateau of induction, pGL3-230 (ARE1) (human IGF-1 promoter; [1]): approximately 8 fold | increase in luciferase expression, construct containing ARE2 (pGL3-13A) (human IGF-1 promoter; HepG2 + AR, testosterone): more than 20 fold | increase in luciferase expression, reporters including ARE1 (pGL3-230, pGL3-22) (human IGF-1 promoter; HepG2 + AR, testosterone): more than 5 fold | induction of reporter containing both ARE1 and ARE2 (pGL3-32) (human IGF-1 promoter; HepG2 + AR, testosterone): greatest induction | responsiveness of reporter with 100 bases downstream of ARE2 (pGL3-25a) (human IGF-1 promoter; HepG2 + AR, testosterone): Little androgen responsiveness | activation of reporter p3-13a (ARE2) (human IGF-1 promoter; [2]): approximately 20 fold | activation of reporter p3-32 (both AREs) (human IGF-1 promoter; [2]): ~30 fold | induction of luciferase expression with DBD mutant AR (AR-C562G) (human IGF-1 promoter; HepG2, pGL3-22, pGL3-13A, pGL3-32, testosterone 50 nM): virtually abolished
